The source of these data is US12022787B2, “Efficient monocot embryo extraction and preservation methods and novel uses thereof” (Wisconsin Alumni Research Foundation, priority 2019, dated 2024).

Each structure is given as a SMILES string.

Experiment [1] deals with LH244 maize iVAEs (immature embryos, 20 DAP). Kind of experiment: Glyphosate sensitivity (selection titer) of dried, frozen, rehydrated maize iVAEs on Regeneration II medium. Type of experiment: in vivo. On the procedure: Maize iVAEs (Immature Value-Added Explants) were prepared following the methods outlined below, and viability and glyphosate sensitivity of the dried, stored embryos were tested. These iVAEs were incubated for four days in a drying chamber with MgNO3 saturated salts and then stored at s −20° C. These frozen iVAEs were later pulled from storage and used to determine process survival as well as used in an experiment to determine sensitivity to the herbicide glyphosate (Millipore Sigma Glyphosate “N-(Phosphonomethyl) glycine”; Cat #337757-5G) for future use as a selection agent for these novel explants.
Post Storage Rehydration Method of the iVAE embryos: Dried maize embryos (iVAEs) were placed on a sterile plate of Regeneration Medium II) and incubated at room temperature for 1 hour. Afterward, sterile water was added and embryos were incubated at room temperature for an additional hour followed by gentile agitation to complete the rehydration process. Embryos were then placed on experimental media to determine survival as well as sensitivity to glyphosate. The rehydrated maize iVAEs were placed on media plates, evenly spaced, and each plate was sealed with porous tissue culture tape and incubated in growth chamber at 26° C. with 16/8 light/dark photoperiod with 60 μmol m-2 s-1. For up to 56 days of observation.
20 DAP LH244 ears were collected from self-pollinated plants in the greenhouse. The embryos were extracted using the iVAE protocol. The extracted and cleaned embryos were placed in a drying chamber with MgNO3 saturated salts for 4 days. LH244 embryos were frozen for 4 days, or until used, at −20° C. in a hermetically closed 50 mL Falcon tube
LH244 embryos were rehydrated as described in Example 9. Following rehydration, plates were set up using Regeneration II Medium. The first replicate has 30 embryos per plate, and the second only 22 per plate. The measurements are standardized to the number of surviving embryos, as measured by the number of embryos displaying coleoptile elongation. A subset of embryos was tested for viability using tetrazolium chloride (TTC).
We analyzed this experiment by counting the percent germination, looking at stress phenotype and using the viability stain tetrazolium chloride (TTC). In general, during germination, green tissue is healthy, purple tissue is stressed and producing anthocyanins, and silver or white tissue is not producing chlorophyll.

In experiment [2] the test system is Barley shoot tips / mature embryo explants. Kind of experiment: Multiple bud/shoot induction from barley mature embryo explants on bud induction media. Type of experiment: in vivo. As to conditions: for multiple bud/shoot induction in barley shoot tips: relatively high amount of cytokinin to 2,4-D, 2 weeks. On the procedure:
To induce multiple buds/shoots from the leaf base of Barley shoot tips post co-culture, we applied medium with a high relative amount of cytokinin to auxin (measured by either concentration or relative activity). Explants were generally on these bud induction medium for a total of 2 weeks, after which presence of multiple buds/shoots was assessed (phenotype shown in FIG. 21, with data summarized in boxplot form in FIG. 22). […] In some experiments, after 1 week on induction media without selection, explants were transferred to induction media with selection. During this 2-week period explants were kept at 27 C 16/8 photoperiod. It may be possible to reduce chimerism in T0 Barley plants by extending this shoot multiplication step to 4-8 weeks.(9)
We followed this experiment up examining removal of 2,4-D from the bud induction phase, as well as its replacement with either picloram or fipexide.

As for `O=C(O)CNCP(=O)(O)O` [glyphosate, N-(Phosphonomethyl) glycine], in experiment [1] (10 μM glyphosate treatment plates, at 27 days), the “damage (loss of greening shoots)” value is 90%. The “reduction in frequency of greening shoots (impairment)” value in experiment [1] (50 μM glyphosate treatment plates, 10 days after start) is “about 80%”. For the same compound, in experiment [1] (after 49 days), the “glyphosate concentration giving apparent reduction of anthocyanins synthesis” value is no less than 100 µM. In addition, in experiment [1] (in response to glyphosate), the “anthocyanin production in treated embryos” value is reported as “significant anthocyanin production”.

In the case of `c1ccc(CNc2ncnc3nc[nH]c23)cc1` [BAP, 6-benzylaminopurine], in experiment [2], the “multiple bud/shoot induction in barley shoot tips” value is “could induce multiple buds/shoots”.

Regarding `O=C(Nc1ccccc1)Nc1cnns1` [TDZ, thidiazuron], in experiment [2] (3 ppm TDZ, 1 ppm 2,4-D), the “explant phenotype after 2 weeks on bud induction media” value is given as “multiple shooting/budding phenotype”. For the same compound, the “multiple bud/shoot induction in barley shoot tips” value in experiment [2] was “could induce multiple buds/shoots”.

For `O=C(COc1ccc(Cl)cc1)N1CCN(Cc2ccc3c(c2)OCO3)CC1` [fipexide], the “explant health versus controls” value in experiment [2] (3 ppm TDZ, 10 ppm fipexide) was “looked healthier than controls on 2,4-D media”. For the same compound, the “explant phenotype after 2 weeks on bud induction media” value is “multiple shooting/budding phenotype” in experiment [2] (3 ppm TDZ, 10 ppm fipexide); “germinating phenotype” in experiment [2] (10 ppm fipexide, TDZ removed); “explant sensitivity” in experiment [2] (100 ppm fipexide).
